According to the NIST ThermoML archive (doi:10.1016/j.jct.2015.02.008):
Numbers after ± are expanded uncertainties.

Experiments:
[1] = for molar entropy: 101.33 kPa, Vacuum adiabatic calorimetry
[2] = molar heat capacity at saturation pressure; settings: Crystal, Vacuum adiabatic calorimetry

Oc1cccc2ccccc12 [1-naphthol]
molar entropy ([1]; 5 K, Crystal): 0.1164 ± 0.017 J/K/mol | molar entropy ([1]; 10 K, Crystal): 1.006 ± 0.025 J/K/mol | molar entropy ([1]; 20 K, Crystal): 5.712 ± 0.067 J/K/mol | molar entropy ([1]; 30 K, Crystal): 12.49 ± 0.075 J/K/mol | molar entropy ([1]; 40 K, Crystal): 19.88 ± 0.091 J/K/mol | molar entropy ([1]; 50 K, Crystal): 27.32 ± 0.11 J/K/mol | molar entropy ([1]; 60 K, Crystal): 34.57 ± 0.12 J/K/mol | molar entropy ([1]; 70 K, Crystal): 41.6 ± 0.15 J/K/mol | molar entropy ([1]; 80 K, Crystal): 48.37 ± 0.17 J/K/mol | molar entropy ([1]; 90 K, Crystal): 54.94 ± 0.3 J/K/mol | molar entropy ([1]; 100 K, Crystal): 61.3 ± 0.31 J/K/mol | molar entropy ([1]; 120 K, Crystal): 73.57 ± 0.32 J/K/mol | molar entropy ([1]; 140 K, Crystal): 85.45 ± 0.33 J/K/mol | molar entropy ([1]; 160 K, Crystal): 97.07 ± 0.35 J/K/mol | molar entropy ([1]; 180 K, Crystal): 108.59 ± 0.37 J/K/mol | molar entropy ([1]; 200 K, Crystal): 120.05 ± 0.38 J/K/mol | molar entropy ([1]; 220 K, Crystal): 131.53 ± 0.41 J/K/mol | molar entropy ([1]; 240 K, Crystal): 143.02 ± 0.42 J/K/mol | molar entropy ([1]; 260 K, Crystal): 154.55 ± 0.44 J/K/mol | molar entropy ([1]; 280 K, Crystal): 166.13 ± 0.47 J/K/mol | molar entropy ([1]; 298.15 K, Crystal): 176.67 ± 0.48 J/K/mol | molar entropy ([1]; 300 K, Crystal): 177.75 ± 0.48 J/K/mol | molar entropy ([1]; 320 K, Crystal): 189.4 ± 0.5 J/K/mol | molar entropy ([1]; 340 K, Crystal): 201.04 ± 0.52 J/K/mol | molar entropy ([1]; 360 K, Crystal): 212.69 ± 0.54 J/K/mol | molar entropy ([1]; 368.49 K, Crystal): 217.66 ± 0.55 J/K/mol | molar entropy ([1]; 368.49 K, Liquid): 283.48 ± 0.67 J/K/mol | vapor or sublimation pressure ([1]; 369.98 K, Liquid, Inclined piston gauge): 0.1033 ± 0.0009 kPa | vapor or sublimation pressure ([1]; 373.12 K, Liquid, Inclined piston gauge): 0.1259 ± 0.0009 kPa | vapor or sublimation pressure ([1]; 374.97 K, Liquid, Inclined piston gauge): 0.1406 ± 0.0009 kPa | molar entropy ([1]; 380 K, Liquid): 292.12 ± 0.68 J/K/mol | vapor or sublimation pressure ([1]; 383.13 K, Liquid, Inclined piston gauge): 0.2221 ± 0.001 kPa | vapor or sublimation pressure ([1]; 384.98 K, Liquid, Inclined piston gauge): 0.2455 ± 0.001 kPa | mass density ([1]; 393 K, Liquid, Pycnometric method): 1063 ± 20 kg/m3 | vapor or sublimation pressure ([1]; 393.13 K, Liquid, Inclined piston gauge): 0.3779 ± 0.0012 kPa | vapor or sublimation pressure ([1]; 394.98 K, Liquid, Inclined piston gauge): 0.4163 ± 0.0012 kPa | molar entropy ([1]; 400 K, Liquid): 306.76 ± 0.71 J/K/mol | vapor or sublimation pressure ([1]; 403.12 K, Liquid, Inclined piston gauge): 0.6229 ± 0.0013 kPa | vapor or sublimation pressure ([1]; 404.96 K, Liquid, Inclined piston gauge): 0.6815 ± 0.0013 kPa | vapor or sublimation pressure ([1]; 408.13 K, Liquid, Inclined piston gauge): 0.7902 ± 0.0014 kPa | vapor or sublimation pressure ([1]; 413.12 K, Liquid, Inclined piston gauge): 0.9955 ± 0.0016 kPa | vapor or sublimation pressure ([1]; 414.97 K, Liquid, Inclined piston gauge): 1.085 ± 0.0017 kPa | vapor or sublimation pressure ([1]; 418.12 K, Liquid, Inclined piston gauge): 1.249 ± 0.0018 kPa | molar entropy ([1]; 420 K, Liquid): 320.97 ± 0.73 J/K/mol | vapor or sublimation pressure ([1]; 423.12 K, Liquid, Inclined piston gauge): 1.551 ± 0.002 kPa | vapor or sublimation pressure ([1]; 424.96 K, Liquid, Inclined piston gauge): 1.68 ± 0.0022 kPa | vapor or sublimation pressure ([1]; 429.2 K, Liquid, Twin ebulliometer): 2 ± 0.0078 kPa | vapor or sublimation pressure ([1]; 429.96 K, Liquid, Inclined piston gauge): 2.071 ± 0.0024 kPa | vapor or sublimation pressure ([1]; 434.97 K, Liquid, Inclined piston gauge): 2.537 ± 0.0028 kPa | vapor or sublimation pressure ([1]; 436.27 K, Liquid, Twin ebulliometer): 2.666 ± 0.0079 kPa | vapor or sublimation pressure ([1]; 439.96 K, Liquid, Inclined piston gauge): 3.091 ± 0.0033 kPa | molar entropy ([1]; 440 K, Liquid): 334.8 ± 0.76 J/K/mol | vapor or sublimation pressure ([1]; 446.77 K, Liquid, Twin ebulliometer): 4 ± 0.0079 kPa | vapor or sublimation pressure ([1]; 454.6 K, Liquid, Twin ebulliometer): 5.333 ± 0.008 kPa | vapor or sublimation pressure ([1]; 466.26 K, Liquid, Twin ebulliometer): 7.999 ± 0.0082 kPa | vapor or sublimation pressure ([1]; 475.01 K, Liquid, Twin ebulliometer): 10.67 ± 0.008 kPa | vapor or sublimation pressure ([1]; 482.08 K, Liquid, Twin ebulliometer): 13.33 ± 0.009 kPa | vapor or sublimation pressure ([1]; 489.42 K, Liquid, Twin ebulliometer): 16.66 ± 0.009 kPa | vapor or sublimation pressure ([1]; 495.53 K, Liquid, Twin ebulliometer): 19.93 ± 0.009 kPa | vapor or sublimation pressure ([1]; 503.55 K, Liquid, Twin ebulliometer): 25.02 ± 0.01 kPa | vapor or sublimation pressure ([1]; 511.63 K, Liquid, Twin ebulliometer): 31.17 ± 0.011 kPa | vapor or sublimation pressure ([1]; 519.75 K, Liquid, Twin ebulliometer): 38.56 ± 0.013 kPa | vapor or sublimation pressure ([1]; 527.93 K, Liquid, Twin ebulliometer): 47.37 ± 0.014 kPa | vapor or sublimation pressure ([1]; 536.16 K, Liquid, Twin ebulliometer): 57.81 ± 0.016 kPa | vapor or sublimation pressure ([1]; 544.44 K, Liquid, Twin ebulliometer): 70.11 ± 0.018 kPa | vapor or sublimation pressure ([1]; 552.77 K, Liquid, Twin ebulliometer): 84.53 ± 0.021 kPa | vapor or sublimation pressure ([1]; 561.14 K, Liquid, Twin ebulliometer): 101.32 ± 0.03 kPa | vapor or sublimation pressure ([1]; 569.59 K, Liquid, Twin ebulliometer): 120.78 ± 0.03 kPa | Triple point temperature ([1]; Crystal, Adiabatic calorimetry): 368.49 ± 0.041 K | molar heat capacity ([2]; 4.908 K): 0.3991 ± 0.017 J/K/mol | molar heat capacity ([2]; 5 K): 0.4074 ± 0.017 J/K/mol | molar heat capacity ([2]; 5.887 K): 0.6735 ± 0.025 J/K/mol | molar heat capacity ([2]; 6.773 K): 0.9894 ± 0.033 J/K/mol | molar heat capacity ([2]; 7.696 K): 1.413 ± 0.05 J/K/mol | molar heat capacity ([2]; 8.736 K): 1.995 ± 0.067 J/K/mol | molar heat capacity ([2]; 9.852 K): 2.752 ± 0.083 J/K/mol | molar heat capacity ([2]; 10 K): 2.86 ± 0.033 J/K/mol | molar heat capacity ([2]; 11.02 K): 3.658 ± 0.033 J/K/mol | molar heat capacity ([2]; 12.26 K): 4.664 ± 0.042 J/K/mol | molar heat capacity ([2]; 13.57 K): 5.837 ± 0.05 J/K/mol | molar heat capacity ([2]; 14.97 K): 7.2 ± 0.058 J/K/mol | molar heat capacity ([2]; 16.55 K): 8.755 ± 0.067 J/K/mol
